From patent US20170065593A1, “Combination” (Novartis AG, priority 2009, published 2017)
Where two headings read alike, the source gives them in different places.

How the values were obtained:
NCI-H23 = assay: Cell growth inhibition assay (Cell Titer Glo, 3 days); type: cell-based, Human; conditions: NCI-H23 (KRAS_G12C), single agent, mean ± std
Description: (§1) Human tumor cell lines from lung cancer, A427, A549, Calu1, Calu3, Calu6, COR-L23, HOP62, MV522, NCI-H1155, NCI-H1299, NCI-H1355, NCI-H1395, NCI-H157, NCI-H1573, NCI-H1666, NCI-1755, NCI-H1792, NCI-2009, NCI-H2030, NCI-H2122, NCI-H2291, NCI-H23, NCI-H2347, NCI-H358, NCI-H441, NCI-H460, NCI-H650, NCI-H727, SW1573 and SW900 were cultured in RPMI 1640 medium containing 10% fetal bovine serum (FBS). Cell line mutation data was collated for the status for the RAS and RAF genes. The data source is the cancer cell line mutation screening data published as part of the Catalog of Somatic Mutations in Cancer database (COSMIC) (Bamford S. et al. Br. J. Cancer. 2004. 91:355-58) and/or in house DNA sequencing.
(§2) Cells were seeded in a 96-well tissue culture plate (NUNC 136102) of RPMI medium containing 10% FBS at 500-2,000 cells per well. Approximately 24 hours after plating, cells were exposed to ten, two-fold or three-fold serial dilutions of either Compound A or B or the combination of the two agents at a 10:1 molar ratio (Compounds A and B respectively). The final dosing concentration range for Compound A was 2-1000 nM and was 0.2-100 nM for Compound B. Cells were incubated in the presence of compounds for 3 days. ATP levels were determined by adding Cell Titer Glo® (Promega) according to the manufacturer's protocol. Briefly, Cell Titer Glo® was added to each plate, incubated for 20 minutes then luminescent signal was read on the SpectraMax L plate reader with a 0.5 sec integration time. All assays were run at least in duplicate.
(§3) Inhibition of cell growth was estimated after treatment with compound or combination of compounds for three days and comparing the signal to cells treated with vehicle (DMSO). Cell growth was calculated relative to vehicle (DMSO) treated control wells. Concentration of compound that inhibits 50% of control cell growth (IC50) was back-interpolated when y=50% of DMSO treated control wells using nonlinear regression with the equation: […]

NCI-H1755 = assay: as above; type: cell-based, Human; conditions: NCI-H1755 (BRAF_G469A), single agent, mean ± std
Description: as §1, §2, §3

NCI-H2009 = assay: as above; type: cell-based, Human; conditions: NCI-H2009 (KRAS-G12A), single agent, mean ± std
Description: as §1, §2, §3

NCI-H358 = assay: as above; type: cell-based, Human; conditions: NCI-H358 (KRAS_G12C), single agent, mean ± std
Description: as §1, §2, §3

NCI-H2030 = assay: as above; type: cell-based, Human; conditions: NCI-H2030 (KRAS_G12C), single agent, mean ± std
Description: as §1, §2, §3

NCI-H2122 = assay: as above; type: cell-based, Human; conditions: NCI-H2122 (KRAS_G12C), single agent, mean ± std
Description: as §1, §2, §3

NCI-H2347 = assay: as above; type: cell-based, Human; conditions: NCI-H2347 (RAS_H, N_Q61R), single agent, mean ± std
Description: as §1, §2, §3

CORL23 = assay: as above; type: cell-based, Human; conditions: CORL23 (KRAS_G12V), single agent, mean ± std
Description: as §1, §2, §3

NCI-H2291 = assay: as above; type: cell-based, Human; conditions: NCI-H2291 (KRAS_G12F), single agent, mean ± std
Description: as §1, §2, §3

[1] = system: panel of 29 human lung tumor cell lines; assay: Cell growth inhibition, summary over the panel; type: cell-based; conditions: out of 29 lines; single agent
Description: as §1
Cells were seeded in a 96-well tissue culture plate (NUNC 136102) of RPMI medium containing 10% FBS at 500-2,000 cells per well. […] ATP levels were determined by adding Cell Titer Glo® (Promega) according to the manufacturer's protocol. Briefly, Cell Titer Glo® was added to each plate, incubated for 20 minutes then luminescent signal was read on the SpectraMax L plate reader with a 0.5 sec integration time. […]
Inhibition of cell growth was estimated after treatment with compound or combination of compounds for three days and comparing the signal to cells treated with vehicle (DMSO). Cell growth was calculated relative to vehicle (DMSO) treated control wells. […]

[2] = system: A549 lung cancer cell line; assay: Assay 2: cell growth (CellTiterGlo, 72 hours), Ymin; type: cell-based; conditions: percent of T=0 (T=0 = 100%)
Description: FIG. 5 depicts the effect of MEK inhibitor, mTOR inhibitor and their combination on A549 lung cancer cell line growth. […] Cells were treated with MEK inhibitor (two fold dilutions ranging from 7.3 uM-0.014 nM) or with mTOR inhibitor (two fold dilutions ranging from 14.6 uM-0.112 nM) or in combination with both compounds and incubated for 72 hours. Cell growth was measured using the CellTiterGlo (CTG) reagent (Promega) according to the manufacturer's protocol. Data were analyzed using the XLfit (IDBS Ltd.) curve-fitting tool for Microsoft Excel. Growth IC50 (gIC50) and Ymin values were generated using a four-parameter curve fit algorithm (XLFit algorithm #205). Results were expressed as a percent of the t=0 and plotted against the compound concentration. […] Formula below was used to calculate mutually exclusive combination index (CI). Data were reported as log CI, where the logarithm value of CI was calculated. […] Similar analysis was performed for all cell lines and Ymin results are depicted in FIG. 6.

[3] = Homo sapiens, 72 h, read-out: IC50 Single Agent Compound B
[4] = read-out: IC50 Single Agent Compound A

Compound | IC50 (NCI-H23; [3]) [nM] | IC50 (NCI-H1755; [3]) [nM] | IC50 (NCI-H2009; [3]) [nM] | IC50 (NCI-H358; [3]) [nM] | IC50 (NCI-H2030; [3]) [nM] | IC50 (NCI-H2122; [3]) [nM] | IC50 (NCI-H2347; [3]) [nM] | IC50 (CORL23; Homo sapiens, COR-L23, 72 h, read-out: IC50 Single Agent Compound B) [nM] | IC50 (NCI-H2291; [3]) [nM] | number of lines sensitive (IC50s<100 nM) [1] | IC50 (NCI-H23; [4]) [nM] | IC50 (NCI-H1755; [4]) [nM] | IC50 (NCI-H2009; [4]) [nM] | IC50 (NCI-H358; [4]) [nM] | IC50 (NCI-H2030; [4]) [nM] | IC50 (NCI-H2122; [4]) [nM] | IC50 (NCI-H2347; [4]) [nM] | IC50 (CORL23; [4]) [nM] | IC50 (NCI-H2291; [4]) [nM] | Ymin (lower Y value at any compound concentration) [2] [%]
CO[C@H]1C[C@@H]2CC[C@@H](C)[C@@](O)(O2)C(=O)C(=O)N2CCCC[C@H]2C(=O)O[C@H]([C@H](C)C[C@@H]2CC[C@@H](OCCO)[C@H](OC)C2)CC(=O)[C@H](C)/C=C(\C)[C@@H](O)[C@@H](OC)C(=O)[C@H](C)C[C@H](C)/C=C/C=C/C=C/1C [Compound B, everolimus] | > 100 | > 100 | > 100 | > 100 | > 10 | 97 ± 37 | > 100 | > 100 | > 100 | 2 | – | – | – | – | – | – | – | – | – | –
N-{3-[3-cyclopropyl-5-(2-fluoro-4-iodo-phenylamino)6,8-dimethyl;-2,4,7-trioxo-3,4,6,7-tetrahydro-2H-pyrido[4,3-d]pyrimidin-1-yl]phenyl}acetamide [Compound A] | – | – | – | – | – | – | – | – | – | 17 | 31 ± 2 | 45 ± 6 | 204 ± 78 | 31 ± 10 | > 1000 | 5 ± 1 | 7 ± 2 | 989 ± 86 | 4 | 257
